Experimental data reported in patent EP0025288A1, “Derivatives of monic acid, processes for their preparation, compositions containing them and their preparation” (priority 1979, dated 1981).
In brackets after ≈: the same amount, converted by molar mass.

Assays:
[1] = tested on: M. hyosynoviae ATCC 25591; assay: MIC, anti-mycoplasmal, Friis broth solidified with 0.9% agarose; type: cell-based; settings: 144 h, inoculum 10^3 to 10^5 C.F.U., 6 days incubation at 37°C, read-out: in vitro MIC
[2] = tested on: M. hyorhinis ATCC 25021; assay: as above; type: cell-based; settings: Mesomycoplasma hyorhinis, ATCC25021, 144 h, inoculum 10^3 to 10^5 C.F.U., 6 days incubation at 37°C, read-out: in vitro MIC
[3] = tested on: Strep suis (group D) SPS11; assay: MIC, veterinary bacteria; type: cell-based; settings: veterinary bacteria (Table 2), read-out: MIC
[4] = tested on: M. suipneumoniae MS 16; assay: MIC, anti-mycoplasmal, Friis broth solidified with 0.9% agarose; type: cell-based; settings: Mesomycoplasma hyopneumoniae, MS16, 144 h, inoculum 10^3 to 10^5 C.F.U., 6 days incubation at 37°C, read-out: in vitro MIC
[5] = tested on: Strep agalactiae SPA1; assay: MIC, veterinary bacteria; type: cell-based; settings: veterinary bacteria (Table 2), read-out: MIC
[6] = tested on: E coli NCTC 10418; assay: MIC, veterinary bacteria; type: cell-based; settings: veterinary bacteria (Table 2), read-out: MIC
[7] = tested on: Past multocida PA2; assay: MIC, veterinary bacteria; type: cell-based; settings: veterinary bacteria (Table 2), read-out: MIC
[8] = tested on: M. bovigenitalium ATCC 14173; assay: MIC, anti-mycoplasmal, Friis broth solidified with 0.9% agarose; type: cell-based; settings: 144 h, inoculum 10^3 to 10^5 C.F.U., 6 days incubation at 37°C, read-out: in vitro MIC
[9] = tested on: Staph aureus 152 (pen sens); assay: MIC, veterinary bacteria; type: cell-based; settings: Staphylococcus aureus, veterinary bacteria (Table 2), read-out: MIC
[10] = tested on: S dublin S7; assay: MIC, veterinary bacteria; type: cell-based; settings: veterinary bacteria (Table 2), read-out: MIC
[11] = tested on: M. dispar NCTC 10125; assay: MIC, anti-mycoplasmal, Friis broth solidified with 0.9% agarose; type: cell-based; settings: 144 h, inoculum 10^3 to 10^5 C.F.U., 6 days incubation at 37°C, read-out: in vitro MIC
[12] = tested on: M. suipneumoniae JF 435; assay: as above; type: cell-based; settings: Mesomycoplasma hyopneumoniae, JF435, 144 h, inoculum 10^3 to 10^5 C.F.U., 6 days incubation at 37°C, read-out: in vitro MIC
[13] = tested on: M. suipneumoniae NB12; assay: as above; type: cell-based; settings: Mesomycoplasma hyopneumoniae, 144 h, inoculum 10^3 to 10^5 C.F.U., 6 days incubation at 37°C, read-out: in vitro MIC
[14] = tested on: M. suipneumoniae PW/C/210; assay: as above; type: cell-based; settings: Mesomycoplasma hyopneumoniae, 144 h, inoculum 10^3 to 10^5 C.F.U., 6 days incubation at 37°C, read-out: in vitro MIC
[15] = tested on: S typhimurium S18; assay: MIC, veterinary bacteria; type: cell-based; settings: veterinary bacteria (Table 2), read-out: MIC
[16] = tested on: Staph aureus B4 (pen resis); assay: MIC, veterinary bacteria; type: cell-based; settings: Staphylococcus aureus, veterinary bacteria (Table 2), read-out: MIC
[17] = tested on: Past Haemolytica PA5; assay: MIC, veterinary bacteria; type: cell-based; settings: veterinary bacteria (Table 2), read-out: MIC
[18] = tested on: M. hyorhinis ATCC 23234; assay: MIC, anti-mycoplasmal, Friis broth solidified with 0.9% agarose; type: cell-based; settings: Mesomycoplasma hyorhinis, ATCC23234, 144 h, inoculum 10^3 to 10^5 C.F.U., 6 days incubation at 37°C, read-out: in vitro MIC
[19] = tested on: E coli E1; assay: MIC, veterinary bacteria; type: cell-based; settings: veterinary bacteria (Table 2), read-out: MIC
[20] = tested on: Past multocida PA1; assay: MIC, veterinary bacteria; type: cell-based; settings: veterinary bacteria (Table 2), read-out: MIC
[21] = tested on: M. suipneumoniae ATCC 25095; assay: MIC, anti-mycoplasmal, Friis broth solidified with 0.9% agarose; type: cell-based; settings: Mesomycoplasma hyopneumoniae, ATCC25095, 144 h, inoculum 10^3 to 10^5 C.F.U., 6 days incubation at 37°C, read-out: in vitro MIC
[22] = tested on: Strep uberis SPU1; assay: MIC, veterinary bacteria; type: cell-based; settings: veterinary bacteria (Table 2), read-out: MIC
[23] = tested on: M. suipneumoniae J2206/183b; assay: MIC, anti-mycoplasmal, Friis broth solidified with 0.9% agarose; type: cell-based; settings: Mesomycoplasma hyopneumoniae, 144 h, inoculum 10^3 to 10^5 C.F.U., 6 days incubation at 37°C, read-out: in vitro MIC
[24] = tested on: M. suipneumoniae UCD 1; assay: as above; type: cell-based; settings: Mesomycoplasma hyopneumoniae, UCD1, 144 h, inoculum 10^3 to 10^5 C.F.U., 6 days incubation at 37°C, read-out: in vitro MIC
[25] = tested on: M. suipneumoniae HK(2); assay: as above; type: cell-based; settings: Mesomycoplasma hyopneumoniae, 144 h, inoculum 10^3 to 10^5 C.F.U., 6 days incubation at 37°C, read-out: in vitro MIC
[26] = tested on: M. suipneumoniae Str. 11; assay: as above; type: cell-based; settings: Mesomycoplasma hyopneumoniae, 144 h, inoculum 10^3 to 10^5 C.F.U., 6 days incubation at 37°C, read-out: in vitro MIC
[27] = tested on: M. gallisepticum S6; assay: as above; type: cell-based; settings: Mycoplasmoides gallisepticum, 144 h, inoculum 10^3 to 10^5 C.F.U., 6 days incubation at 37°C, read-out: in vitro MIC
[28] = tested on: Bord bronchisptica BO9; assay: MIC, veterinary bacteria; type: cell-based; settings: veterinary bacteria (Table 2), read-out: MIC
[29] = tested on: M. suipneumoniae NCTC 10110; assay: MIC, anti-mycoplasmal, Friis broth solidified with 0.9% agarose; type: cell-based; settings: Mesomycoplasma hyopneumoniae, NCTC10110, 144 h, inoculum 10^3 to 10^5 C.F.U., 6 days incubation at 37°C, read-out: in vitro MIC
[30] = tested on: Erysipelothrix rhusiopathiae NCTC 8163; assay: MIC, veterinary bacteria; type: cell-based; settings: NCTC8163, veterinary bacteria (Table 2), read-out: MIC
[31] = tested on: Staph aureus Oxford; assay: MIC, veterinary bacteria; type: cell-based; settings: Staphylococcus aureus, veterinary bacteria (Table 2), read-out: MIC
[32] = tested on: M. pneumoniae ATCC 15492; assay: MIC, anti-mycoplasmal, Friis broth solidified with 0.9% agarose; type: cell-based; settings: Mycoplasmoides pneumoniae, ATCC15492, 144 h, inoculum 10^3 to 10^5 C.F.U., 6 days incubation at 37°C, read-out: in vitro MIC
[33] = Serum binding by ultrafiltration; type: in vitro ADME, pig; settings: pig, serum, compounds at 8 mcg/ml, microbiological assay (B. subtilis ATCC 6633), read-out: % bound to pig serum (converted)
Method: Serum binding was assessed by ultrafiltration of procine serum containing compounds at 8 mcg/ml, and through an Amicon CF50A ultrafiltration cone. Separation of ultrafiltrate was achieved by centrifugation.

[34] = tested on: M. suipneumoniae LABER; assay: MIC, anti-mycoplasmal, Friis broth solidified with 0.9% agarose; type: cell-based; settings: Mesomycoplasma hyopneumoniae, 144 h, inoculum 10^3 to 10^5 C.F.U., 6 days incubation at 37°C, read-out: in vitro MIC
[35] = tested on: Strep dysgalaciae SPD1; assay: MIC, veterinary bacteria; type: cell-based; settings: veterinary bacteria (Table 2), read-out: MIC
[36] = tested on: M. bovis NCTC 10131; assay: microbe, parasite or virus in culture; type: cell-based; settings: NCTC10131, 144 h, read-out: in vitro MIC
[37] = tested on: Bord bronchiseptica BO8; assay: MIC, veterinary bacteria; type: cell-based; settings: veterinary bacteria (Table 2), read-out: MIC
[38] = tested on: Corynebacterium pyogenes CY1; assay: MIC, veterinary bacteria; type: cell-based; settings: veterinary bacteria (Table 2), read-out: MIC
[39] = tested on: M. suipneumoniae TAM 6N; assay: MIC, anti-mycoplasmal, Friis broth solidified with 0.9% agarose; type: cell-based; settings: Mesomycoplasma hyopneumoniae, TAM6N, 144 h, inoculum 10^3 to 10^5 C.F.U., 6 days incubation at 37°C, read-out: in vitro MIC

Compound | MIC [1] [µg/mL] | MIC [2] [µg/mL] | MIC [3] [µg/mL] | MIC [4] [µg/mL] | MIC [5] [µg/mL] | MIC [6] [µg/mL] | MIC [7] [µg/mL] | MIC [8] [µg/mL] | MIC [9] [µg/mL] | MIC [10] [µg/mL] | MIC [11] [µg/mL] | MIC [12] [µg/mL] | MIC [13] [µg/mL] | MIC [14] [µg/mL] | MIC [15] [µg/mL] | MIC [16] [µg/mL] | MIC [17] [µg/mL] | MIC [18] [µg/mL] | MIC [19] [µg/mL] | MIC [20] [µg/mL] | also measured
CC(=O)Nc1ccc(C(=O)CCCOC(=O)C=C(C)CC2OCC(CC3OC3C(C)C(C)O)C(O)C2O)cc1 (centres unmarked) [Example 9, 4-(4-Acetamidophenyl)-4-oxobutyl monate A] | 0.1 (≈ 0.183 µM) | 0.25 (≈ 0.457 µM) | 2.5 (≈ 4.57 µM) | 0.25 (≈ 0.457 µM) | 0.625 (≈ 1.14 µM) | > 80 | 0.625 (≈ 1.14 µM) | 0.05 (≈ 0.0913 µM) | 0.625 (≈ 1.14 µM) | > 80 | 0.1 (≈ 0.183 µM) | 0.5 (≈ 0.913 µM) | 0.5 (≈ 0.913 µM) | 0.25 (≈ 0.457 µM) | > 80 | 1.25 (≈ 2.28 µM) | 20 (≈ 36.5 µM) | 0.25 (≈ 0.457 µM) | > 80 | 2.5 (≈ 4.57 µM) | MIC [21]: 0.5 µg/mL (≈ 0.913 µM); MIC [22]: 0.156 µg/mL (≈ 0.285 µM); MIC [23]: 0.5 µg/mL (≈ 0.913 µM); MIC [24]: 0.5 µg/mL (≈ 0.913 µM); MIC [25]: 0.5 µg/mL (≈ 0.913 µM); MIC [26]: 0.25 µg/mL (≈ 0.457 µM); MIC [27]: 2.5 µg/mL (≈ 4.57 µM); MIC [28]: 20 µg/mL (≈ 36.5 µM); MIC [29]: 0.5 µg/mL (≈ 0.913 µM); MIC [30]: 20 µg/mL (≈ 36.5 µM); MIC [31]: 0.625 µg/mL (≈ 1.14 µM); MIC [32]: 0.5 µg/mL (≈ 0.913 µM); fraction unbound [33]: 0.138; MIC [34]: 0.25 µg/mL (≈ 0.457 µM); MIC [35]: 0.156 µg/mL (≈ 0.285 µM); MIC [36]: ≤ 0.01 µg/mL; MIC [37]: > 80 µg/mL; MIC [38]: > 80 µg/mL; MIC [39]: 0.5 µg/mL (≈ 0.913 µM)
CC(=CC(=O)OC1CCCC(=O)CCC1)CC1OCC(CC2OC2C(C)C(C)O)C(O)C1O (centres unmarked) [Example 10, Cyclooctan-5-onyl monate A] | 0.25 (≈ 0.534 µM) | 1 (≈ 2.13 µM) | 80 (≈ 171 µM) | 1 (≈ 2.13 µM) | 10 (≈ 21.3 µM) | > 80 | 1.25 (≈ 2.67 µM) | 0.05 (≈ 0.107 µM) | 2.5 (≈ 5.34 µM) | > 80 | 0.5 (≈ 1.07 µM) | 2.5 (≈ 5.34 µM) | 2.5 (≈ 5.34 µM) | 1 (≈ 2.13 µM) | > 80 | 2.5 (≈ 5.34 µM) | 40 (≈ 85.4 µM) | 1 (≈ 2.13 µM) | > 80 | 40 (≈ 85.4 µM) | MIC [21]: 1 µg/mL (≈ 2.13 µM); MIC [22]: 1.25 µg/mL (≈ 2.67 µM); MIC [23]: 2.5 µg/mL (≈ 5.34 µM); MIC [24]: 1 µg/mL (≈ 2.13 µM); MIC [25]: 2.5 µg/mL (≈ 5.34 µM); MIC [26]: 1 µg/mL (≈ 2.13 µM); MIC [27]: > 10 µg/mL; MIC [28]: 80 µg/mL (≈ 171 µM); MIC [29]: 1 µg/mL (≈ 2.13 µM); MIC [30]: 80 µg/mL (≈ 171 µM); MIC [31]: 2.5 µg/mL (≈ 5.34 µM); MIC [32]: 10 µg/mL (≈ 21.3 µM); MIC [34]: 1 µg/mL (≈ 2.13 µM); MIC [35]: 5 µg/mL (≈ 10.7 µM); MIC [36]: 0.025 µg/mL (≈ 0.0534 µM); MIC [37]: > 80 µg/mL; MIC [38]: 80 µg/mL (≈ 171 µM); MIC [39]: 2.5 µg/mL (≈ 5.34 µM)
